Literature values as cited in publication PMC3346673 (Toxicological and environmental chemistry, 2012).

How the values were obtained:
[1] = temporarily ref Risher & Amier, 2005; cited from earlier work
[2] = administered by sc injection; cited from earlier work

Structure (SMILES)	reduction of blood mercury levels [1]	predicted LD50 [2]
O=C(O)C(S)C(S)C(=O)O (stereo not drawn) [DMSA, dimercaptosuccinic acid]	about 20%	
[Cl][Hg][Cl] [HgCl2, mercury chloride]		14 mg HgCl2 kg^−1
O=S(=O)(O)CC(S)CS (stereo not drawn) [DMPS, dimercaptopropanesulfonate]	about 20%	
